Data on four compounds can be found in patent US7169927B2, “Indole-amide derivatives and their use as glycogen phosphorylase inhibitors” (AstraZeneca AB, priority 2002, dated 2007).

In one assay the test system is conscious dogs. The settings on record: following a glucagon challenge; cited from earlier work.
The test system of a further assay is hepatocytes. The settings on record: cited from earlier work; for glucose output: glucagon stimulated.
Another assay relates to db/db and ob/ob mice. The settings on record: cited from earlier work.
Assay [1] has as its target T1, Human recombinant liver glycogen phosphorylase a (hrl GPa) (Homo sapiens, UniProt P06737).
T1 sequence (P06737 1-847): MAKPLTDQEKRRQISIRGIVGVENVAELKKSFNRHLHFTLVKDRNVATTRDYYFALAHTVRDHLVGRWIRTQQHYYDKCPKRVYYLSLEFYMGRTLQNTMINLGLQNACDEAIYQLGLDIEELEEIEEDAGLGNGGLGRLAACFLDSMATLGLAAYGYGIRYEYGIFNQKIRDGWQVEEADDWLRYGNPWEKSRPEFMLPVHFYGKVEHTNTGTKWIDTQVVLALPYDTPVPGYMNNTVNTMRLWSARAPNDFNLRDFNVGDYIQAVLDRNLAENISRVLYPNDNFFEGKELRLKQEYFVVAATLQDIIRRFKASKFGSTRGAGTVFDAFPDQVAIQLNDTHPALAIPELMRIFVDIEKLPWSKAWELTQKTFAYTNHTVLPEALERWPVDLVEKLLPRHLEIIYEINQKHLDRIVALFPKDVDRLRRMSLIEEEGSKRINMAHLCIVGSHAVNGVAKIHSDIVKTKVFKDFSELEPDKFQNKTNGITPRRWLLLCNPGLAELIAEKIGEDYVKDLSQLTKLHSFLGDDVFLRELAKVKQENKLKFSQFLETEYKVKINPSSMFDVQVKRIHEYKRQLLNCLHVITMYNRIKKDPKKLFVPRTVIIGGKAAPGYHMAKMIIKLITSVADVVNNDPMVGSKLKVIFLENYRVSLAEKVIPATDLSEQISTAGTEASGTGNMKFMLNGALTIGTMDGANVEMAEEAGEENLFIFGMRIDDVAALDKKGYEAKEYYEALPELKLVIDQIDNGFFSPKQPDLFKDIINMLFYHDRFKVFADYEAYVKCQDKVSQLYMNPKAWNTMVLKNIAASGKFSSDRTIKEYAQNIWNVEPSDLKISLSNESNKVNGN
Briefly: Glycogen phosphorylase a inhibition, glycogen degradation (multienzyme coupled assay, NADH fluorescence). The settings on record: glycogen degradation direction. It is filed as biochemical. How it is done:
The activity of the compounds is alternatively determined by measuring the inhibitory effect of the compounds on glycogen degradation, the production of glucose-1-phosphate from glycogen is monitored by the multienzyme coupled assay, as described in EP 0 846 464 A2, general method of Pesce et al (Pesce, M A, Bodourian, S H, Harris, R C, and Nicholson, J F (1977) Clinical Chemistry 23, […]). The reactions were in 384well microplate format in a volume of 50 μl. The change in fluorescence due to the conversion of the co-factor NAD to NADH is measured at 340 nm excitation, 465 nm emission in a Tecan Ultra Multifunctional Microplate Reader. The reaction is in 50 mM HEPES, 3.5 mM KH2PO4, 2.5 mM MgCl2, 2.5 mM ethylene glycol-bis(b-aminoethyl ether) N,N,N′N′tetraacetic acid, 100 mM KCl, 8 mM D-(+)-glucose pH7.2, containing 0.5 mM dithiothreitol, the assay buffer solution. Human recombinant liver glycogen phosphorylase a (hrl GPa) 20 nM is pre-incubated in assay buffer solution with 6.25 mM NAD, 1.25 mg type III glycogen at 1.25 mg ml^−1 the reagent buffer, for 30 minutes. […] The non-inhibited activity of GPa is measured in the presence of 10 μl 5% DMSO in assay buffer solution and maximum inhibition measured in the presence of 5 mgs ml^−1 N-ethylmaleimide. […] Relative Fluoresence Units (RFUs) are measured at 340 nm excitation, 465 nm emission. […]

With `CCN1C(C)=C(C(=O)OC(C)C)C(c2ccccc2Cl)C2=C1COC2=O` (stereo not drawn) [Bay R 3401], in the assay on conscious dogs, the arterial plasma glucose entry is reported as “reduced significantly” and the hepatic glucose output entry is given as “reduced significantly”.

For the compound `CN(C)C(=O)[C@H](O)[C@H](Cc1ccccc1)NC(=O)c1cc2cc(Cl)ccc2[nH]1` [CP91149], in the assay with hepatocytes, the glucagon stimulated glycogenolysis result is “reduce” and the glucose output result is recorded as “reduce”. The plasma glucose concentration result in the assay on db/db and ob/ob mice is “reduced, in a dose related manner”.

Turning to `O=C(N[C@@H](Cc1ccc(F)cc1)C(=O)N1CCC(O)CC1)c1cc2cc(Cl)ccc2[nH]1` [CP320626], in the assay with hepatocytes, the glucagon stimulated glycogenolysis result is given as “reduce” and the glucose output entry is “reduce”. In addition, the plasma glucose concentration result in the assay with db/db and ob/ob mice is recorded as “reduced, in a dose related manner”.

`Cc1csc(NC(=O)CN2C(=O)C(NC(=O)c3cc4cc(Cl)ccc4[nH]3)Cc3ccccc32)n1` (stereo not drawn) [Example 14, 5-chloro-N-(1-{2-[(4-methyl-1,3-thiazol-2-yl)amino]-2-oxoethyl}-2-oxo-1,2,3,4-tetrahydroquinolin-3-yl)-1H-indole-2-carboxamide]: the IC50 (as a rule, the concentration that gives 50% inhibition) in assay [1] turned out to be 4.6 µM.
